Measurements from BindingDB's records for doi:10.1021/jm990281p (Parke-Davis Pharmaceutical Research, 2000).

How the values were obtained:
[1] = target: T1, Gag-Pol polyprotein [489-587] (Human immunodeficiency virus 1, UniProt P04585); test: Protease Inhibition Assay
T1 construct: 489-587
Description: (§1) Sensitivity of HIV-1 protease activity to protease inhibitors was determined by a peptide substrate cleavage assay. Protease products were analyzed on a reverse-phase high-pressure liquid chromatograph.

[2] = target: T2, Dimer of Gag-Pol polyprotein [489-587] (Human immunodeficiency virus 1, UniProt P12497); test: Protease Inhibition Assay
T2 construct: 489-587
Description: as §1

| SMILES | IC50 [1] | IC50 ([2]; pH 6.2, 37 °C) | IC50 [2] |
| --- | --- | --- | --- |
| Cc1cc(SC2C(=O)CC(CCc3ccc(O)cc3)(C(C)C)OC2=O)c(C(C)(C)C)cc1NS(C)(=O)=O (stereo not drawn) | 4 nM | 4 nM |  |
| Cc1cc(SC2C(=O)CC(CCc3ccc(O)cc3)(C(C)C)OC2=O)c(C(C)(C)C)cc1NS(=O)(=O)c1ccc(Cl)cc1 (stereo not drawn) | 5.3 nM | 5.3 nM |  |
| Cc1cc(SC2C(=O)CC(CCc3ccc(O)cc3)(C(C)C)OC2=O)c(C(C)(C)C)cc1NS(=O)(=O)c1cccnc1 (stereo not drawn) | 2.6 nM | 2.6 nM |  |
| Cc1cc(SC2C(=O)CC(C)(CCc3ccc(O)cc3)OC2=O)c(C(C)(C)C)cc1NS(C)(=O)=O (stereo not drawn) | 9.7 nM | 9.7 nM |  |
| Cc1cc(SC2C(=O)CC(C)(CCc3ccc(O)cc3)OC2=O)c(C(C)(C)C)cc1NS(=O)(=O)c1ccc(C#N)cc1 (stereo not drawn) | 2.1 nM | 2.1 nM |  |
| Cc1cc(SC2C(=O)CC(CCc3ccccc3)(C(C)C)OC2=O)c(C(C)(C)C)cc1N (stereo not drawn) | 3.6 nM | 3.6 nM |  |
| Cc1cc(SC2C(=O)CC(CCc3ccccc3)(C(C)C)OC2=O)c(C(C)(C)C)cc1NS(=O)(=O)c1cccs1 (stereo not drawn) | 3.6 nM | 3.6 nM |  |
| Cc1cc(SC2C(=O)CC(CCc3ccc(O)cc3)(C(C)C)OC2=O)c(C(C)(C)C)cc1OS(=O)(=O)c1ccc(F)cc1 (stereo not drawn) | 9.6 nM |  | 9.6 nM |
| Cc1cc(SC2C(=O)CC(CCc3ccc(O)cc3)(C(C)C)OC2=O)c(C(C)(C)C)cc1OS(=O)(=O)c1cccnc1 (stereo not drawn) | 3.5 nM |  | 3.5 nM |
| Cc1cc(SC2C(=O)CC(C)(CCc3ccc(O)cc3)OC2=O)c(C(C)(C)C)cc1OS(=O)(=O)c1ccccc1 (stereo not drawn) | 9.8 nM |  | 9.8 nM |
| Cc1cc(SC2C(=O)CC(C)(CCc3ccc(O)cc3)OC2=O)c(C(C)(C)C)cc1OS(=O)(=O)c1ccc(F)cc1 (stereo not drawn) | 16.9 nM |  | 16.9 nM |
| Cc1cc(SC2C(=O)CC(CCc3ccc(O)cc3)(C3CCCCC3)OC2=O)c(C(C)(C)C)cc1OS(=O)(=O)c1ccc(C#N)cc1 (stereo not drawn) | 21 nM |  | 21 nM |
| Cc1cc(SC2C(=O)CC(CCc3ccc(O)cc3)(C3CCCCC3)OC2=O)c(C(C)(C)C)cc1OS(=O)(=O)c1ccc(F)cc1 (stereo not drawn) | 29 nM |  | 29 nM |
| Cc1cc(SC2C(=O)CC(CCc3ccccc3)(C(C)C)OC2=O)c(C(C)(C)C)cc1OS(=O)(=O)c1cccnc1 (stereo not drawn) | 14 nM |  | 14 nM |
| Cc1cc(SC2C(=O)CC(CCc3ccc(N)cc3)(C(C)C)OC2=O)c(C(C)(C)C)cc1OS(=O)(=O)c1ccc(C#N)cc1 (stereo not drawn) | 1.3 nM |  | 1.3 nM |
| CCNS(=O)(=O)Nc1cc(C(C)(C)C)c(SC2C(=O)CC(CCc3ccc(O)cc3)(C(C)C)OC2=O)cc1C (stereo not drawn) | 1.7 nM |  | 1.7 nM |
| CCNS(=O)(=O)Nc1cc(C(C)(C)C)c(SC2C(=O)CC(CCc3ccccc3)(C(C)C)OC2=O)cc1C (stereo not drawn) | 3.3 nM |  | 3.3 nM |
| Cc1cc(SC2C(=O)CC(CCc3ccc(O)cc3)(C(C)C)OC2=O)c(C(C)(C)C)cc1NS(=O)(=O)N(C)C (stereo not drawn) [3-({2-tert-butyl-4-[(dimethylsulfamoyl)amino]-5-methylphenyl}sulfanyl)-4-hydroxy-6-[2-(4-hydroxyphenyl)ethyl]-6-(propan-2-yl)-5,6-dihydro-2H-pyran-2-one] | 3.6 nM |  | 3.6 nM |
| Cc1cc(SC2C(=O)CC(C)(CCc3ccc(O)cc3)OC2=O)c(C(C)(C)C)cc1N (stereo not drawn) [3-[(4-amino-2-tert-butyl-5-methylphenyl)sulfanyl]-4-hydroxy-6-[2-(4-hydroxyphenyl)ethyl]-6-methyl-5,6-dihydro-2H-pyran-2-one] | 13 nM | 13 nM |  |
| Cc1cc(SC2C(=O)CC(CCc3ccc(O)cc3)(C(C)C)OC2=O)c(C(C)(C)C)cc1OS(=O)(=O)c1ccc(C#N)cc1 (stereo not drawn) [5-tert-butyl-4-({4-hydroxy-6-[2-(4-hydroxyphenyl)ethyl]-2-oxo-6-(propan-2-yl)-5,6-dihydro-2H-pyran-3-yl}sulfanyl)-2-methylphenyl 4-cyanobenzene-1-sulfonate] | 4.5 nM |  | 4.5 nM |
| Cc1cc(SC2C(=O)CC(CCc3ccc(O)cc3)(C(C)C)OC2=O)c(C(C)(C)C)cc1OS(=O)(=O)c1ccccc1 (stereo not drawn) [5-tert-butyl-4-({4-hydroxy-6-[2-(4-hydroxyphenyl)ethyl]-2-oxo-6-(propan-2-yl)-5,6-dihydro-2H-pyran-3-yl}sulfanyl)-2-methylphenyl benzenesulfonate] | 10.4 nM |  | 10.4 nM |
| Cc1cc(SC2C(=O)CC(CCc3ccc(O)cc3)(C(C)C)OC2=O)c(C(C)(C)C)cc1OS(=O)(=O)c1ccccn1 (stereo not drawn) [5-tert-butyl-4-({4-hydroxy-6-[2-(4-hydroxyphenyl)ethyl]-2-oxo-6-(propan-2-yl)-5,6-dihydro-2H-pyran-3-yl}sulfanyl)-2-methylphenyl pyridine-2-sulfonate] | 5 nM |  | 5 nM |
| Cc1cc(SC2C(=O)CC(CCc3ccc(O)cc3)(C(C)C)OC2=O)c(C(C)(C)C)cc1OS(=O)(=O)c1cccs1 (stereo not drawn) [5-tert-butyl-4-({4-hydroxy-6-[2-(4-hydroxyphenyl)ethyl]-2-oxo-6-(propan-2-yl)-5,6-dihydro-2H-pyran-3-yl}sulfanyl)-2-methylphenyl thiophene-2-sulfonate] | 21.8 nM |  | 21.8 nM |
| Cc1cc(SC2C(=O)CC(CCc3ccc(O)cc3)(C3CCCCC3)OC2=O)c(C(C)(C)C)cc1OS(=O)(=O)c1ccccc1 (stereo not drawn) [5-tert-butyl-4-({6-cyclohexyl-4-hydroxy-6-[2-(4-hydroxyphenyl)ethyl]-2-oxo-5,6-dihydro-2H-pyran-3-yl}sulfanyl)-2-methylphenyl benzenesulfonate] | 131 nM |  | 130 nM |
| Cc1cc(SC2C(=O)CC(CCc3ccccc3)(C(C)C)OC2=O)c(C(C)(C)C)cc1OS(=O)(=O)c1ccccn1 (stereo not drawn) [5-tert-butyl-4-{[4-hydroxy-2-oxo-6-(2-phenylethyl)-6-(propan-2-yl)-5,6-dihydro-2H-pyran-3-yl]sulfanyl}-2-methylphenyl pyridine-2-sulfonate] | 6.7 nM |  | 6.7 nM |
| Cc1cc(SC2C(=O)CC(CCc3ccccc3)(C(C)C)OC2=O)c(C(C)(C)C)cc1NS(=O)(=O)c1ccccn1 (stereo not drawn) [N-(5-tert-butyl-4-{[4-hydroxy-2-oxo-6-(2-phenylethyl)-6-(propan-2-yl)-5,6-dihydro-2H-pyran-3-yl]sulfanyl}-2-methylphenyl)pyridine-2-sulfonamide] | 3 nM |  | 3 nM |
| Cc1cc(SC2C(=O)CC(CCc3ccc(O)cc3)(C(C)C)OC2=O)c(C(C)(C)C)cc1NS(=O)(=O)c1ccc(C(F)(F)F)cc1 (stereo not drawn) [N-[5-tert-butyl-4-({4-hydroxy-6-[2-(4-hydroxyphenyl)ethyl]-2-oxo-6-(propan-2-yl)-5,6-dihydro-2H-pyran-3-yl}sulfanyl)-2-methylphenyl]-4-(trifluoromethyl)benzene-1-sulfonamide] | 18.3 nM | 18.3 nM |  |
| Cc1cc(SC2C(=O)CC(CCc3ccc(O)cc3)(C(C)C)OC2=O)c(C(C)(C)C)cc1NS(=O)(=O)c1ccc(F)cc1 (stereo not drawn) [N-[5-tert-butyl-4-({4-hydroxy-6-[2-(4-hydroxyphenyl)ethyl]-2-oxo-6-(propan-2-yl)-5,6-dihydro-2H-pyran-3-yl}sulfanyl)-2-methylphenyl]-4-fluorobenzene-1-sulfonamide] | 4.1 nM | 4.1 nM |  |
| Cc1cc(SC2C(=O)CC(CCc3ccc(O)cc3)(C(C)C)OC2=O)c(C(C)(C)C)cc1NS(=O)(=O)c1ccccn1 (stereo not drawn) [N-[5-tert-butyl-4-({4-hydroxy-6-[2-(4-hydroxyphenyl)ethyl]-2-oxo-6-(propan-2-yl)-5,6-dihydro-2H-pyran-3-yl}sulfanyl)-2-methylphenyl]pyridine-2-sulfonamide] | 2.6 nM | 2.6 nM |  |
